This assay concerns the target T1, TRAF6/Uev1A/Ubc13 (Homo sapiens, UniProt Q9Y4K3).
T1 sequence (Q9Y4K3 1-522): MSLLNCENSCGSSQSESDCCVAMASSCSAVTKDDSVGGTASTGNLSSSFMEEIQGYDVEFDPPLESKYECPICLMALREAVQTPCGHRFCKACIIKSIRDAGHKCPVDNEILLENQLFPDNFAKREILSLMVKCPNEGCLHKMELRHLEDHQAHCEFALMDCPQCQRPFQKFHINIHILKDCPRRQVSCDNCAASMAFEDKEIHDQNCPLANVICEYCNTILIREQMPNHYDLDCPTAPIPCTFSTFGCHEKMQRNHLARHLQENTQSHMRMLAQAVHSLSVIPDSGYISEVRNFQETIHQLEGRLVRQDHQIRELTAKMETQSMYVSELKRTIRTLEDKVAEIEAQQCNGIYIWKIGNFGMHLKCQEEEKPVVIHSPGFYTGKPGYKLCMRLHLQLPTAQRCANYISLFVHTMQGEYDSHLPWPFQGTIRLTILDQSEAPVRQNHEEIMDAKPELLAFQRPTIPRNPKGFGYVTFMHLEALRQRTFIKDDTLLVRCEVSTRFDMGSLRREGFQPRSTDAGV
Description: TRAF6/Uev1A/Ubc13 plate-based ubiquitin ligase assay. The assay is classed as biochemical. As to the method:
For the assays described below, the TRAF6/Uev1A/UBC13 assay is the biochemical plate-based assay of TRAF6 ligase activity using Ubc13 as the E2 enzyme. The gel-based assay is the biochemical solution-based TRAF6 ligase assay (by SDS-PAGE and Western blot) to confirm the plate-based ELISA assay. The APC assay is an assay which is another E3 ligase (APC2/APC11) biochemical assay.
A 96-well Ni-plate was blocked with 100 μl of 1% casein in PBS for 1 hour at room temperature. The plates were then washed three times with 200 μl of 1×PBS and 80 μl of a reaction buffer was added per well which contained 50 ng of Flag-ubiquitin, 50 ng of His-ubiquitin, 62.5 mM Tris pH 7.5, 6.25 mM MgCl2, 1.0 mM DTT, and 2 μM ATP. To each well was added 10 μl of a solution of the compound in DMSO. The reaction was started by adding 10 μl of a solution consisting of 10 ng human E1, 25 ng each of Uev1a and Ubc13, and 100 ng TRAF6 in the reaction buffer. The plates were shaken for 10 minutes and incubate at room temperature for 1 hour. After the incubation, the plates were washed three times with 200 μl 1×PBS in 0.05% Tween and 100 μl of an antibody mix consisting of anti-Flag (1:30,000 dilution; Sigma F-3165) and anti-Mouse IgG-HRP (1/150,000 dilution; Jackson Immunoresearch #115-035-146) in 1×PBS with 0.25% BSA. The plates were then incubated for another 1 hour at room temperature, and after incubation the plate was washed three times with 200 μl 1×PBS with 0.05% Tween. The amount of ubiquitin was measured by adding 100 μl of Lumino substrate (1:5 dilution) and reading the luminescence with a fluorimeter.
Table 2 below illustrates the inhibitory activity of the compounds of the invention determined by the TRAF6/Uev1A/Ubc13 assay as well as in the ICAM, APC and the ROC1/CUL1 Ubiquitin Ligase Assay (SCF Assay). The IC50 values were determined using a various concentrations of the compounds.

Results on 30 compounds are retold here after patent US20050282818A1, “Ubiquitin ligase inhibitors” (Rigel Pharmaceuticals, Inc., priority 2004, published 2005).

Regarding `O=S(=O)(Nc1cccc2nonc12)c1ccc(Oc2ccc3c(C(F)(F)F)cc(C(F)(F)F)nc3n2)cc1` [compound 81, N-2,1,3-benzoxadiazol-4-yl-4-{[5,7-bis(trifluoromethyl)-1,8-naphthyridin-2-yl]oxy}benzenesulfonamide], the IC50 (usually the concentration at which inhibition is half-maximal) was at least 20 µM.
The result for `O=S(=O)(Nc1cccc2nsnc12)c1ccc(Oc2ccc(C(F)(F)F)cc2Cl)nc1` [compound 117, N-2,1,3-benzothiadiazol-4-yl-6-[2-chloro-4-(trifluoromethyl)phenoxy]pyridine-3-sulfonamide] reads at least 20 µM; that for `O=[N+]([O-])c1ccc(N2CCN(c3ccc([N+](=O)[O-])c4nonc34)CC2)cc1` [compound 147, 4-nitro-7-[4-(4-nitrophenyl)piperazin-1-yl]-2,1,3-benzoxadiazole], 1 to 20 µM; that for `CCOc1ccc2nc(NS(=O)(=O)c3ccc(Cl)c4nonc34)sc2c1` [compound 198, 7-chloro-N-(6-ethoxy-1,3-benzothiazol-2-yl)-2,1,3-benzoxadiazole-4-sulfonamide], at least 20 µM.
The result for `O=[N+]([O-])c1ccc(N2CCSCC2)c2nonc12` [compound 237, 4-nitro-7-thiomorpholin-4-yl-2,1,3-benzoxadiazole] reads at least 20 µM; that for `O=S(=O)(c1cccc2nsnc12)N1CCC(Oc2ccccc2C(F)(F)F)CC1` [compound 240, 4-({4-[2-(trifluoromethyl)phenoxy]piperidin-1-yl}sulfonyl)-2,1,3-benzothiadiazole], at least 20 µM.
As for `CC1(C)CCN(S(=O)(=O)c2ccc(Cl)c3nonc23)CC1` [compound 247, 4-chloro-7-[(4,4-dimethylpiperidin-1-yl)sulfonyl]-2,1,3-benzoxadiazole], the figure is at least 20 µM; as for `COC(=O)c1ccc(NS(=O)(=O)c2ccc(Sc3ccc4ccccc4n3)c3nonc23)cc1` [compound 248, methyl 4-({[7-(quinolin-2-ylthio)-2,1,3-benzoxadiazol-4-yl]sulfonyl}amino)benzoate], at least 20 µM.
In turn, `O=S(=O)(c1ccc(Sc2ccc(O)cc2)c2nonc12)N1CCN(c2ccccc2)CC1` [compound 249, 4-({7-[(4-phenylpiperazin-1-yl)sulfonyl]-2,1,3-benzoxadiazol-4-yl}thio)phenol] registered an IC50 of 1 to 20 µM.
The result for `COC(=O)c1ccc(NS(=O)(=O)c2ccc(N3CCSCC3)c3nonc23)cc1` [compound 250, methyl 4-{[(7-thiomorpholin-4-yl-2,1,3-benzoxadiazol-4-yl)sulfonyl]amino}benzoate] reads at least 20 µM; that for `O=S(=O)(c1ccc(Sc2ccncc2)c2nonc12)N1CCN(c2ccccc2)CC1` [compound 251, 4-[(4-phenylpiperazin-1-yl)sulfonyl]-7-(pyridin-4-ylthio)-2,1,3-benzoxadiazole], at least 20 µM.
In turn, `O=S(=O)(c1ccc(Sc2ccc3ccccc3n2)c2nonc12)N1CCN(c2ccccc2)CC1` [compound 252, 2-({7-[(4-phenylpiperazin-1-yl)sulfonyl]-2,1,3-benzoxadiazol-4-yl}thio)quinoline] registered an IC50 of at least 20 µM.
As for `O=S(=O)(c1ccc(Sc2cccc3ccccc23)c2nonc12)N1CCN(c2ccccc2)CC1` [compound 253, 4-(1-naphthylthio)-7-[(4-phenylpiperazin-1-yl)sulfonyl]-2,1,3-benzoxadiazole], the figure is 1 to 20 µM; as for `O=S(=O)(Nc1cccc(F)c1)c1ccc(F)c2nonc12` [compound 272, 7-fluoro-N-(3-fluorophenyl)-2,1,3-benzoxadiazole-4-sulfonamide], at least 20 µM; as for `O=S(=O)(Nc1cccc(F)c1)c1ccc(Nc2cccc(F)c2)c2nonc12` [compound 273, N-(3-fluorophenyl)-7-[(3-fluorophenyl)amino]-2,1,3-benzoxadiazole-4-sulfonamide], at least 20 µM.
The compound `Cc1cc(F)ccc1Nc1ccc(S(=O)(=O)Nc2ccc(F)cc2C)c2nonc12` [compound 275, N-(4-fluoro-2-methylphenyl)-7-[(4-fluoro-2-methylphenyl)amino]-2,1,3-benzoxadiazole-4-sulfonamide] had a half-inhibitory concentration (IC50) of 1 to 20 µM.
The result for `Cc1cc(F)ccc1NS(=O)(=O)c1ccc(F)c2nonc12` [compound 276, 7-fluoro-N-(4-fluoro-2-methylphenyl)-2,1,3-benzoxadiazole-4-sulfonamide] reads 1 to 20 µM; that for `COC(=O)c1ccc(NS(=O)(=O)c2ccc(Oc3cccc4cccnc34)c3nonc23)cc1` [compound 277, methyl 4-({[7-(quinolin-8-yloxy)-2,1,3-benzoxadiazol-4-yl]sulfonyl}amino)benzoate], at least 20 µM; that for `FC(F)(F)c1cnc(N2CCN(c3ccc(N4CCOCC4)c4nonc34)CC2)c(Cl)c1` [compound 282, 4-{4-[3-chloro-5-(trifluoromethyl)pyridin-2-yl]piperazin-1-yl}-7-morpholin-4-yl-2,1,3-benzoxadiazole], at least 20 µM.
The result for `O=[N+]([O-])c1ccc(N2CCC(S(=O)(=O)c3ccccn3)CC2)c2nonc12` [compound 289, 4-nitro-7-[4-(pyridin-2-ylsulfonyl)piperidin-1-yl]-2,1,3-benzoxadiazole] reads at least 20 µM.
For the compound `O=[N+]([O-])c1ccc(S(=O)(=O)c2cccc3cccnc23)c2nonc12` [compound 290, 8-[(7-nitro-2,1,3-benzoxadiazol-4-yl)sulfonyl]quinoline], the half-inhibitory concentration (IC50) is at least 20 µM.
`CCN(CC)c1cc(N2CCN(c3ccc(Cl)c(C(F)(F)F)c3)CC2)c2nonc2c1[N+](=O)[O-]` [compound 292, 7-{4-[4-chloro-3-(trifluoromethyl)phenyl]piperazin-1-yl}-N,N-diethyl-4-nitro-2,1,3-benzoxadiazol-5-amine] yielded an IC50 of at least 20 µM.
The result for `CCN(CC)c1cc(N2CCN(c3ncc(C(F)(F)F)cc3Cl)CC2)c2nonc2c1[N+](=O)[O-]` [compound 293, 7-{4-[3-chloro-5-(trifluoromethyl)pyridin-2-yl]piperazin-1-yl}-N,N-diethyl-4-nitro-2,1,3-benzoxadiazol-5-amine] reads at least 20 µM; that for `CCN(CC)c1cc(N2CCN(c3ncccc3C#N)CC2)c2nonc2c1[N+](=O)[O-]` [compound 294, 2-{4-[6-(diethylamino)-7-nitro-2,1,3-benzoxadiazol-4-yl]piperazin-1-yl}nicotinonitrile], at least 20 µM; that for `O=[N+]([O-])c1c(N2CCCCC2)cc(N2CCN(c3ccc(Cl)c(C(F)(F)F)c3)CC2)c2nonc12` [compound 295, 7-{4-[4-chloro-3-(trifluoromethyl)phenyl]piperazin-1-yl}-4-nitro-5-piperidin-1-yl-2,1,3-benzoxadiazole], at least 20 µM.
With `O=[N+]([O-])c1c(N2CCCCC2)cc(N2CCN(c3ncc(C(F)(F)F)cc3Cl)CC2)c2nonc12` [compound 296, 7-{4-[3-chloro-5-(trifluoromethyl)pyridin-2-yl]piperazin-1-yl}-4-nitro-5-piperidin-1-yl-2,1,3-benoxadiazole], the IC50 lay in the range of 1 to 20 µM.
As for `N#Cc1cccnc1N1CCN(c2cc(N3CCCCC3)c([N+](=O)[O-])c3nonc23)CC1` [compound 297, 2-[4-(7-nitro-6-piperidin-1-yl-2,1,3-benzoxadiazol-4-yl)piperazin-1-yl]nicotinonitrile], the 50% inhibitory concentration (IC50) was at least 20 µM.
As for `CCN(CC)c1cc(N2CCC3(CC2)OCc2ccccc23)c2nonc2c1[N+](=O)[O-]` [compound 298, N,N-diethyl-4-nitro-7-(1′H,3H-spiro[2-benzofuran-1,4′-piperidin]-1′-yl)-2,1,3-benzoxadiazol-5-amine], the figure is at least 20 µM.
Take `CCN(CC)c1cc(N2CCC(O)(c3ccccc3)CC2)c2nonc2c1[N+](=O)[O-]` [compound 299, 1-[6-(diethylamino)-7-nitro-2,1,3-benzoxadiazol-4-yl]-4-phenylpiperidin-4-ol]: the IC50 was at least 20 µM.
The result for `O=[N+]([O-])c1c(N2CCCCC2)cc(N2CCC3(CC2)OCc2ccccc23)c2nonc12` [compound 300, 1′-(7-nitro-6-piperidin-1-yl-2,1,3-benzoxadiazol-4-yl)-3H-spiro[2-benzofuran-1,4′-piperidine]] reads at least 20 µM.
